19 compounds from US20040063770A1, “Method for treating Alzheimer's disease” (Warner-Lambert Company, priority 2000, published 2004) can be followed below.

One assay deals with Aβ secretion from CHO cells transfected with Swedish mutation Amyloid Precursor Protein (CHO-APPsw). Nature of the assay: Aβ secretion inhibition in CHO-APPsw cells, sandwich ELISA. The assay is classed as cell-based. The note with it: CHO, read-out: Effect on Aβ Secretion (Concentration) (IC50). As to the method: This is an […] assay designed to show the ability of test compounds to […]. CHO cells transfected with human AβPP bearing the Swedish mutation AβPP(CHO-AβPPsw) were treated with a farnesyl transferase inhibitor (FTI) (e.g., compounds from Table 1). The assay was carried out as follows:
CHO cells transfected with Swedish mutation Amyloid Precursor Protein (CHO-APPsw) were maintained in Dulbecco's Modified Eagle Medium (DMEM) media supplemented with nonessential amino acids (NEAA, Gibco-BRL Company) and 10% (v/v) heat inactivated Fetal Calf Serum (Hyclone Company), penicillin and streptomycin (Gibco-BRL).
The polyclonal antibodies were purified on a protein G-Sepharose column prior to use. Biotinylated monoclonal antibody 4G8 which recognizes amino acids 17-24 of Aβ (Senetek plc, St. Louis, Mo., USA) was used as the detection antibody. Alkaline phosphatase-conjugated strepavidin (Zymed Laboratories, San Francisco, Calif., USA) was used to bind the biotinylated detection antibody followed by Attophos (JBL Scientific, St. Luis Obispo, Calif., USA), the substrate for alkaline phosphatase. Fluorescence was measured using a Cytofluor plate reader (Perseptive Biosystems, Framingham, Mass., USA) set at 450 nm excitation and 560 emission. Synthetic Aβ40 and Aβ42 peptides used for standard curves were purchased from California Peptide (Napa, Calif., USA).
In the case of `O=C1CCCc2c1ccc(O[C@H](Cn1ccnc1)c1ccccc1)c2CNc1ccccc1` [Compound 8, (S) 6-(2-Imidazol-1-yl-1-phenyl-ethoxy)-5-phenylaminomethyl-3,4-dihydro-2H-naphthalen-1-one], the IC50 turned out to be 7.6 µM. On the same count and under the same terms, then `O=C1CCCc2c1ccc(O[C@H](Cn1ccnc1)c1ccccc1)c2CCc1ccccn1` [Compound 12, (S) 6-(2-Imidazol-1-yl-1-phenyl-ethoxy)-5-(2-pyridin-2-yl-ethyl)-3,4-dihydro-2H-naphthalen-1-one], with 12 µM; and `CC(C)OCc1c(OC(Cn2ccnc2)c2ccccc2)ccc2c1CCCC2=O` (centres unmarked) [Compound 7, 6-(2-Imidazol-1-yl-1-phenyl-ethoxy)-5-isopropoxymethyl-3,4-dihydro-2H-naphthalen-1-one], with 37.9 µM; and `O=C1CCCc2cc(O[C@@H](Cn3ccnc3)c3ccccc3)ccc21` [Compound 5, (R) 6-(2-Imidazol-1-yl-1-phenyl-ethoxy)-3,4-dihydro-2H-naphthalen-1-one], with 1.5 µM. As to `O=C1CCCc2c1ccc(O[C@H](Cn1ccnc1)c1ccccc1)c2CCc1ccccc1` [Compound 1, (S) 6-(2-Imidazol-1-yl-1-phenyl-ethoxy)-5-phenethyl-3,4-dihydro-2H-naphthalen-1-one], the IC50 is 0.7 µM. For the compound `O=C1CCCc2c1ccc(O[C@H](Cn1ccnc1)c1ccccc1)c2CS(=O)(=O)c1ccccc1` [Compound 10, (S) 5-Benzenesulfonylmethyl-6-(2-imidazol-1-yl-1-phenyl-ethoxy)-3,4-dihydro-2H-naphthalen-1-one], the IC50 was 25.4 µM. Same read-out and setting: then `O=C1CCCc2c1ccc(OCCc1cncn1Cc1ccccc1)c2CCc1ccccc1` [Compound 15, 6-[2-(3-Benzyl-3H-imidazol-4-yl)-ethoxy]-5-phenethyl-3,4-dihydro-2H -naphthalen-1-one; trifluoro-acetate], with 1.5 µM. In the case of `O=C1CCCc2c1ccc(O[C@H](Cn1ccnc1)c1ccccc1)c2CCc1ccc(F)cc1` [Compound 9, (S) 6-(2-Imidazol-1-yl-1-phenyl-ethoxy)-5-[2-(4-fluorophenyl)ethyl]-3,4-dihydro-2H-naphthalen-1-one], the IC50 turned out to be 4.5 µM.

Regarding `O=C1CCCc2c1ccc(OC(Cn1ccnc1)c1ccccc1)c2CCc1ccncc1` (centres unmarked) [Compound 13, 6-(2-Imidazol-1-yl-1-phenyl-ethoxy)-5-(2-pyridin-4-yl-ethyl)-3,4-dihydro-2H-naphthalen-1-one], the IC50 came to 11 µM.

Still in this assay, the particulars now being: CHO-APPsw cells, serum free media overnight at 37° C., secreted Aβ by sandwich ELISA; read-out: Effect on Aβ Secretion (Concentration) (IC50).
Take `O=C1CCCc2cc(OC(Cn3ccnc3)c3ccc(Cl)cc3)ccc21` (racemic) [Compound 4, 6-[1-(4-Chloro-phenyl)-2-imidazol-1-yl-ethoxy]-3,4-dihydro-2H-napththalen-1-one racemic]: the IC50 stood at 25 µM.

As to `CN1C(=O)CC(c2cccc(Cl)c2)c2cc(C(Nc3cncn3C)c3ccc(Cl)cc3)ccc21` (centres unmarked) [Compound 18, 1-Methyl-4-(3-chlorophenyl)-6-[(4-chlorophenyl)-(1-methylimidazol-5-yl)aminomethyl]-2,3-dihydroquinolin-2-one], the IC50 stood at 6 µM. As to `O=C1CCCc2cc(OCCc3c[nH]cn3)ccc21` [Compound 2, 6-[2-(1H-Imidazol-4-yl)-ethoxy]-3,4-dihydro-2H-naphthalen-1-one], the IC50 turned out to be 7.6 µM.

For `O=C(CN(Cc1ccc(OCc2ccccc2)cc1)C(=O)[C@H](Cc1c[nH]cn1)NC(=O)OCc1ccccc1)NCCOCc1ccccc1` [Compound 19, (S) [1-{(4-Benzyloxy-benzyl)-[(2-benzyloxy-ethylcarbamoyl)-methyl]-carbamoyl}-2-(1H-imidazol-4-yl)ethyl]-carbamic acid benzyl ester], the IC50 was found to be 10 µM. For `CC(C)(CNC(=O)CN(Cc1ccc(OCc2ccccc2)cc1)C(=O)[C@H](Cc1cnc[nH]1)NC(=O)OCc1ccccc1)c1ccccc1` [Compound 16, (S) [1-{(4-Benzyloxy-benzyl)-[(2-methyl-2-phenyl-propycarbamoyl)-methyl]-carbamoyl}-2-(3H-imidazol-4-yl)-ethyl]-carbamic acid benzyl ester], the IC50 stood at 50 µM. In the case of `O=C1CCCc2c1ccc(S[C@H](Cn1ccnc1)c1ccccc1)c2CCc1ccccc1` [Compound 11, (S) 6-(2-Imidazol-1-yl-1-phenyl-ethylsulfanyl)-5-phenethyl-3,4-dihydro-2H-naphthalen-1-one], the IC50 is 1.5 µM.

For `O=C1CCC(c2ccccc2)c2cc(OC(Cn3ccnc3)c3ccccc3)ccc21` (racemic) [Compound 6, 6-(2-Imidazol-1-yl-1-phenyl-ethoxy)-4-phenyl-3,4-dihydro-2H-naphthalen-1-one racemic], the IC50 stood at 3.1 µM. As to `Cc1ccc(CN(CC(=O)NCC2(c3ccccc3)CCC2)C(=O)[C@H](Cc2c[nH]cn2)NC(=O)OCc2ccccc2)cc1` [Compound 17, (S) [2-(1H-Imidazol-4-yl)-1-((4-methyl-benzyl)-{[(1-phenyl-cyclobutylmethyl)-carbamoyl]-methyl}-carbamoyl)-ethyl]-carbamic acid benzyl ester], the IC50 came to 10 µM.

In the case of `O=C(O)CCC(Oc1ccc2c(c1CCc1ccccc1)CCCC2=O)c1ccccc1` (centres unmarked) [Compound 14, 4-(5-Oxo-1-phenethyl-5,6,7,8-tetrahydro-naphthalen-2-yloxy)-4-phenyl-butyric acid], the IC50 was found to be 13.8 µM.

As to `O=C1/C(=C/c2cccs2)CCc2cc(OC(Cn3ccnc3)c3ccccc3)ccc21` (racemic) [Compound 3, E-(+/−)6-(2-Imidazol-1-yl-1-phenyl-ethoxy)-2-thiophen-2-ylmethylene-3,4-dihydro-2H-naphthalen-1-one], the IC50 came to 4.5 µM.

The assay is the same for the next values; noted with them: transfected CHO cells treated with 10 μM compound.
With `O=C1CCCc2c1ccc(O[C@H](Cn1ccnc1)c1ccccc1)c2CCc1ccccc1` [Compound 1, (S) 6-(2-Imidazol-1-yl-1-phenyl-ethoxy)-5-phenethyl-3,4-dihydro-2H-naphthalen-1-one], the “fold decrease in secreted Aβ” value stood at 6.5 fold.
